Tests used:
Coronary artery = test: Vasodilating activity: increase in coronary blood flow in anesthetized dogs; assay type: in vivo, Hybrid adult dogs; conditions: i.v., n = 3 anesthetized dogs, vs. prior to administration
Experimental: (§1) A suspension of the compounds produced in the above examples in 0.5% HCO 60 solution was administered through the lateroradial dermal vein. […] As a control drug was employed Cinnepazied (1-[(1-pyrrolidinylcarbonyl)methyl]-4-(3,4,5-trimethyoxycinnamoyl)piperazine).

Vertebral artery = test: Vasodilating activity: increase in vertebral blood flow in anesthetized dogs; assay type: in vivo, Hybrid adult dogs; conditions: i.v., n = 3 anesthetized dogs, vs. prior to administration
Experimental: as §1

`COc1cc(C=CC(=O)N2CCN(CC(=O)N3CCCC3)CC2)cc(OC)c1OC` [Cinnepazid, 1-[(1-pyrrolidinylcarbonyl)methyl]-4-(3,4,5-trimethyoxycinnamoyl)piperazine, reference compound] was tested, and the “Increase in blood flow (Δ% ± SE), Coronary artery” value (Coronary artery; 0.3 mg/kg) was 2.1 ± 0.8 Δ%, the “Increase in blood flow (Δ% ± SE), Coronary artery” value (Coronary artery; 1.0 mg/kg) was 10.0 ± 0.5 Δ% and the “Increase in blood flow (Δ% ± SE), Vertebral artery” value (Vertebral artery; 0.3 mg/kg) was 1.5 ± 0.4 Δ%. For the same compound, the “Increase in blood flow (Δ% ± SE), Vertebral artery” value (Vertebral artery; 1.0 mg/kg) was 5.6 ± 0.2 Δ%.

For `COc1cc(/C=C/C(=O)NCCO[N+](=O)[O-])cc(OC)c1OC` [Example 2, N-(β-hydroxyethyl)-3,4,5-trimethoxycinnamic acid amide nitrate], the “Increase in blood flow (Δ% ± SE), Coronary artery” value (Coronary artery; 0.3 mg/kg) was 3.8 ± 0.5 Δ%, the “Increase in blood flow (Δ% ± SE), Coronary artery” value (Coronary artery; 1.0 mg/kg) was 22.9 ± 1.5 Δ% and the “Increase in blood flow (Δ% ± SE), Vertebral artery” value (Vertebral artery; 0.3 mg/kg) was 35.0 ± 1.7 Δ%. The “Increase in blood flow (Δ% ± SE), Vertebral artery” value (Vertebral artery; 1.0 mg/kg) was 58.3 ± 5.3 Δ%.

For `COc1cc(/C=C/C=C/C(=O)NCCO[N+](=O)[O-])cc(OC)c1OC` [Example 1, N-(β-hydroxyethyl)-5-(3,4,5-trimethoxyphenyl)-2,4-pentadienoic acid amide nitrate], the “Increase in blood flow (Δ% ± SE), Coronary artery” value (Coronary artery; 0.3 mg/kg) was 3.6 ± 0.2 Δ%, the “Increase in blood flow (Δ% ± SE), Coronary artery” value (Coronary artery; 1.0 mg/kg) was 28.6 ± 1.9 Δ% and the “Increase in blood flow (Δ% ± SE), Vertebral artery” value (Vertebral artery; 0.3 mg/kg) was 50.0 ± 2.4 Δ%. The “Increase in blood flow (Δ% ± SE), Vertebral artery” value (Vertebral artery; 1.0 mg/kg) was 83.3 ± 7.5 Δ%.
